Reference: ChEMBL document CHEMBL1201862, “PubChem BioAssay data set” (2004)
Values joined by “and” are separate entries in the source; they are usually repeats but may differ in a detail not shown here. Identical values can stand only once.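 Each compound was tested at five concentrations against cells in 96-well plates for 48 hours. At the GI50, growth is halved.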 Active and inactive are the calls of the source. No stated cut-off is given here; in the data, active = GI50 up to about 1.1 µM and inactive = higher.

What was measured:
Assay in all cases: inhibition of tumour cell growth, NCI panel, 48 h
A549 = test system: A549
ACHN = test system: ACHN
CCRF-CEM = test system: CCRF-CEM
HCT-15 = test system: HCT-15
HOP-92 = test system: HOP-92
K562 = test system: K562
M14 = test system: M14
MOLT-4 = test system: MOLT-4
NCI-H460 = test system: NCI-H460
OVCAR-4 = test system: OVCAR-4
SF-268 = test system: SF-268
SF-295 = test system: SF-295
SK-MEL-28 = test system: SK-MEL-28
SK-MEL-5 = test system: SK-MEL-5
SW-620 = test system: SW-620
UO-31 = test system: UO-31
HCT-116 = test system: HCT-116
SNB-19 = test system: SNB-19

`O=C1[C@H]2ON(c3ccccc3)C(c3ccccc3F)[C@H]2C(=O)N1c1ccc(Cc2ccc(N3C(=O)[C@@H]4ON(c5ccccc5)C(c5ccccc5F)[C@@H]4C3=O)cc2)cc1` (some centres not stated) was tested, and the GI50 (A549) was > 100 µM (inactive), the GI50 (ACHN) was > 100 µM (inactive) and the GI50 (CCRF-CEM) was > 100 µM (inactive). The GI50 (HCT-15) was > 100 µM, the GI50 (HOP-92) was 21.5 µM (inactive) and the GI50 (K562) was > 100 µM (inactive). The GI50 (M14) was 34.8 µM (inactive), the GI50 (MOLT-4) was > 100 µM (inactive) and the GI50 (NCI-H460) was > 100 µM (inactive). For the same molecule, the GI50 (OVCAR-4) was > 100 µM (inactive), the GI50 (SF-268) was > 100 µM (inactive) and the GI50 (SF-295) was 67.1 µM (inactive). For the same molecule, the GI50 (SK-MEL-28) was > 100 µM (inactive), the GI50 (SK-MEL-5) was > 100 µM (inactive) and the GI50 (SW-620) was > 100 µM (inactive). The GI50 (UO-31) was > 100 µM (inactive).

In the case of `NC1=NN(c2ccccc2)C(=O)C1C(=O)C(=O)Nc1cccc(C(F)(F)F)c1` (configuration not stated), the GI50 (A549) is reported as > 100 µM (inactive), the GI50 (ACHN) is reported as > 100 µM (inactive) and the GI50 (CCRF-CEM) is reported as > 100 µM (inactive). The GI50 (HCT-116) was > 100 µM (inactive), the GI50 (HCT-15) was > 100 µM and the GI50 (HOP-92) was 23.7 µM (inactive). The GI50 (K562) was 86.1 µM (inactive), the GI50 (M14) was > 100 µM (inactive) and the GI50 (MOLT-4) was > 100 µM (inactive). For the same molecule, the GI50 (NCI-H460) was > 100 µM (inactive), the GI50 (OVCAR-4) was > 100 µM (inactive) and the GI50 (SF-268) was > 100 µM (inactive). The GI50 (SF-295) was > 100 µM (inactive), the GI50 (SK-MEL-5) was > 100 µM (inactive) and the GI50 (SNB-19) was > 100 µM (inactive). For the same molecule, the GI50 (SW-620) was > 100 µM (inactive) and the GI50 (UO-31) was > 100 µM (inactive).

In the case of `CC1(C)CC(C2CC(C)(C)CC(C)(C)[C@H]2O)[C@@H](O)C(C)(C)C1` (some centres not stated), the GI50 (A549) is reported as > 100 µM (inactive), the GI50 (ACHN) is reported as > 100 µM (inactive) and the GI50 (CCRF-CEM) is reported as > 100 µM (inactive). For the same molecule, the GI50 (HCT-116) was > 100 µM (inactive), the GI50 (HCT-15) was > 100 µM and the GI50 (K562) was > 100 µM (inactive). For the same molecule, the GI50 (M14) was > 100 µM (inactive), the GI50 (MOLT-4) was > 100 µM (inactive) and the GI50 (NCI-H460) was > 100 µM (inactive). The GI50 (SF-268) was > 100 µM (inactive), the GI50 (SF-295) was > 100 µM (inactive) and the GI50 (SK-MEL-28) was > 100 µM (inactive). The GI50 (SK-MEL-5) was > 100 µM (inactive), the GI50 (SNB-19) was > 100 µM (inactive) and the GI50 (SW-620) was > 100 µM (inactive). The GI50 (UO-31) was > 100 µM (inactive).

With `CC1=C(/C(C)=N/NC(=O)c2ccccc2O)C(C)C(/C(C)=N/NC(=O)c2ccccc2O)=C(C)N1` the GI50 (A549) was 21.5 µM (inactive), the GI50 (ACHN) was 16.3 µM (inactive) and the GI50 (HCT-116) was 18.5 µM (inactive). For the same molecule, the GI50 (HCT-15) was 22.8 µM, the GI50 (HOP-92) was 28.8 µM (inactive) and the GI50 (K562) was 16.6 µM (inactive). The GI50 (M14) was 30.2 µM (inactive), the GI50 (MOLT-4) was 5.09 µM (inactive) and the GI50 (NCI-H460) was 18 µM (inactive). The GI50 (OVCAR-4) was 11.5 µM (inactive), the GI50 (SF-268) was 25.6 µM (inactive) and the GI50 (SK-MEL-28) was 21.8 µM (inactive). For the same molecule, the GI50 (SK-MEL-5) was 19.8 µM (inactive), the GI50 (SNB-19) was 30.5 µM (inactive) and the GI50 (SW-620) was 33.6 µM (inactive). For the same molecule, the GI50 (UO-31) was 15.5 µM (inactive).

With `CCCCCCCCCCCCCCCCCCOCC(C[N+]1(C)CCC(O)CC1)OCC` (configuration not stated) the GI50 (A549) was 5.87 µM (inactive), the GI50 (CCRF-CEM) was 1.97 µM (inactive) and the GI50 (HCT-116) was 7.71 µM (inactive). The GI50 (HOP-92) was 1.78 µM (inactive), the GI50 (K562) was 4.17 µM (inactive) and the GI50 (M14) was 9.51 µM (inactive). The GI50 (MOLT-4) was 2.87 µM (inactive), the GI50 (OVCAR-4) was 4.1 µM (inactive) and the GI50 (SF-268) was 3.39 µM (inactive). The GI50 (SF-295) was 4.68 µM (inactive), the GI50 (SK-MEL-28) was 12.7 µM (inactive) and the GI50 (SNB-19) was 6.73 µM (inactive). The GI50 (SW-620) was 5.48 µM (inactive) and the GI50 (UO-31) was 11.9 µM (inactive).

In the case of `CC1OC(OC23C(=O)CC(C)(O)CC2(O)C=CC2=C3C(=O)c3ccc(C4CC(OC5CCC(OC6CC(O)C(O)C(C)O6)C(C)O5)C(O)C(C)O4)c(O)c3C2=O)CCC1O` (configuration not stated), the GI50 (A549) is reported as 29.6 µM (inactive) and 25.1 µM (inactive), the GI50 (ACHN) is reported as 17 µM (inactive) and 15.7 µM (inactive) and the GI50 (CCRF-CEM) is reported as 6.65 µM (inactive). The GI50 (K562) was 14.5 µM (inactive) and 9.4 µM (inactive), the GI50 (M14) was 18.2 µM (inactive) and 13.8 µM (inactive) and the GI50 (MOLT-4) was 5.71 µM (inactive). The GI50 (NCI-H460) was 19.4 µM (inactive) and 17.6 µM (inactive), the GI50 (OVCAR-4) was 16.4 µM (inactive) and 19.1 µM (inactive) and the GI50 (SF-268) was 17 µM (inactive) and 16.4 µM (inactive). For the same molecule, the GI50 (SK-MEL-28) was 15.5 µM (inactive) and 14.3 µM (inactive), the GI50 (SK-MEL-5) was 19 µM (inactive) and 16.1 µM (inactive) and the GI50 (SW-620) was 4.86 µM (inactive) and 3.39 µM (inactive). For the same molecule, the GI50 (UO-31) was 18 µM (inactive) and 18.4 µM (inactive).

In the case of `NC(Cc1ccccc1)C(=O)OCN1C(=O)C2C3C=CC(C2C1=O)C1C2C(=O)N(COC(=O)C(N)Cc4ccccc4)C(=O)C2C31` (configuration not stated), the GI50 (A549) is reported as 25.9 µM (inactive), the GI50 (ACHN) is reported as 23.1 µM (inactive) and the GI50 (CCRF-CEM) is reported as 21.1 µM (inactive). The GI50 (HCT-116) was 16.3 µM (inactive), the GI50 (HCT-15) was 17.8 µM and the GI50 (HOP-92) was 32 µM (inactive). For the same molecule, the GI50 (K562) was 25.8 µM (inactive), the GI50 (M14) was 20.4 µM (inactive) and the GI50 (NCI-H460) was 14.4 µM (inactive). The GI50 (OVCAR-4) was 18.3 µM (inactive), the GI50 (SF-268) was 25.9 µM (inactive) and the GI50 (SF-295) was 48 µM (inactive). For the same molecule, the GI50 (SK-MEL-28) was 22.9 µM (inactive), the GI50 (SK-MEL-5) was 18.3 µM (inactive) and the GI50 (SNB-19) was 50.1 µM (inactive). For the same molecule, the GI50 (SW-620) was 19.5 µM (inactive).

In the case of `CC(=O)NNc1nc(C)c(C(=O)/C=C/c2ccc(N(C)C)cc2)s1`, the GI50 (A549) is reported as > 100 µM (inactive), the GI50 (ACHN) is reported as > 100 µM (inactive) and the GI50 (CCRF-CEM) is reported as > 100 µM (inactive). For the same molecule, the GI50 (HCT-15) was > 100 µM, the GI50 (HOP-92) was > 100 µM (inactive) and the GI50 (K562) was > 100 µM (inactive). For the same molecule, the GI50 (MOLT-4) was > 100 µM (inactive), the GI50 (NCI-H460) was > 100 µM (inactive) and the GI50 (SF-268) was > 100 µM (inactive). For the same molecule, the GI50 (SF-295) was > 100 µM (inactive), the GI50 (SK-MEL-28) was > 100 µM (inactive) and the GI50 (SK-MEL-5) was > 100 µM (inactive). For the same molecule, the GI50 (SW-620) was > 100 µM (inactive) and the GI50 (UO-31) was > 100 µM (inactive).
